Substitutions are numbered along the chain they refer to. Read-outs that look alike come from different tables or passages of the source.
Legend:
Format in all cases: cell-based
[1] = molecular target: T1, wild-type Androgen Receptor (AR-wt) (Homo sapiens, UniProt P10275); experiment: LNCaP-AR-wt ANT reporter assay (ARE firefly luciferase, antagonist mode); conditions: for IC50: antagonist mode, 400 pM R-1881 challenge, −Log10(IC50 [Molar]), read-out: LNCaP-AR-wt ANT pIC50 (converted); for Emax: read-out: LNCaP-AR-wt ANT MAX % Inh
T1 construct: expressed in transfected cells; host or cells: LNCaP (LNCaP AR (cs))
T1 sequence (P10275 1-920): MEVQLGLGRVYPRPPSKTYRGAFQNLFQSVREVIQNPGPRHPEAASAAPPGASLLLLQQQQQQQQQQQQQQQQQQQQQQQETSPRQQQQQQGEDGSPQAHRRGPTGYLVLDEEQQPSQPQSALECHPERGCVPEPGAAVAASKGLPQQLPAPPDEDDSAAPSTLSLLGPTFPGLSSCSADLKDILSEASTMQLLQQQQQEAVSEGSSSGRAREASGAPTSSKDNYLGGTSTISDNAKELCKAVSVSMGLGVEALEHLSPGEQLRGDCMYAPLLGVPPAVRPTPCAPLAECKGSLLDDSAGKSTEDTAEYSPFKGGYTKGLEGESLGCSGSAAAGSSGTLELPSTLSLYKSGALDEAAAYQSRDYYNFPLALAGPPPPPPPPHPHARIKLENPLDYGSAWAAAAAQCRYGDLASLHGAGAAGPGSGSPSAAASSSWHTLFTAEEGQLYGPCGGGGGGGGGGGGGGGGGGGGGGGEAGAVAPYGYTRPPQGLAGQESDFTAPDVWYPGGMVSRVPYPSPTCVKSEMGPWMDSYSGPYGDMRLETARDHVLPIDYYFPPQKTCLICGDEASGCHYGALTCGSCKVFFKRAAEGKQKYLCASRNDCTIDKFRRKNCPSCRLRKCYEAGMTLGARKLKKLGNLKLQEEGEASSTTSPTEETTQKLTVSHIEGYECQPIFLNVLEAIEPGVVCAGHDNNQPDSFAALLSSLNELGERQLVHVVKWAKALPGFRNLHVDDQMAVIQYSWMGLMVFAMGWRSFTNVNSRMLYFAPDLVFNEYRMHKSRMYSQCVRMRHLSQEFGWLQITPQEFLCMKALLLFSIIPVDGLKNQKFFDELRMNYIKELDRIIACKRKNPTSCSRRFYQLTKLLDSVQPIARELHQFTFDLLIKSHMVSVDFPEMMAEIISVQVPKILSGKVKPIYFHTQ
Protocol: (§1) A stable pooled-population cell line was generated using puromycin (Life Technologies) selection at 1:10,000 v/v. The protocol below was used for both cell lines and for testing of the compounds of Formula (I) of the present invention.
(§2) LNCaP cells were grown to about 80% confluence, media removed and cells rinsed in Hank's balanced salt solution prior to separation from the plate with 0.05% Trypsin EDTA. Cells were lifted and trypsin negated in complete CSS (charcoal stripped serum) culture media. […] Agonist challenge was at 400 pM for WT assay and 600 pM for F876L assay. Plates containing cells and compounds herein were incubated for a further 20-24 hours at 37° C., 5% CO2 before addition of 40 μL/well of Steady-Glo Luciferase Assay System Reagent (Promega# E2520). After 1 h, plates were read for luminescence on a BMG Pherastar.
(§3) EC/IC50 calculations were achieved utilizing calculated RLU data and data fitting macros. Data were fit using least-squares methods to the following formula: […]

[2] = molecular target: T1, wild-type Androgen Receptor (AR-wt); experiment: LNCaP-AR-wt AG reporter assay (ARE firefly luciferase, agonist mode); conditions: for Emax: read-out: LNCaP-AR-wt AG MAX % Stim
Protocol: as §1, §2, §3

[3] = molecular target: T2, F876L mutant Androgen Receptor (AR-F876L) (Homo sapiens, UniProt P10275, F877L); experiment: LNCaP-AR-F876L ANT reporter assay (ARE firefly luciferase, antagonist mode); conditions: for Emax: read-out: LNCaP-AR-F876L ANT MAX % Inh; for IC50: read-out: LNCaP-AR-F876L ANT pIC50 (converted)
T2 construct: expressed in transfected cells; host or cells: LNCaP (LNCaP F876L)
T2 sequence (P10275 1-920 F877L): T1 sequence (P10275 1-920) with F877L
Protocol: as §1, §2, §3

[4] = molecular target: T2, F876L mutant Androgen Receptor (AR-F876L); experiment: LNCaP-AR-F876L AG reporter assay (ARE firefly luciferase, agonist mode); conditions: for Emax: read-out: LNCaP-AR-F876L AG MAX % Stim
Protocol: as §1, §2, §3

[5] = maximum % inhibition of R1881 control response over tested concentration range
[6] = agonist mode, −Log10(EC50 [Molar]), read-out: LNCaP-AR-wt AG pEC50 (converted)
[7] = maximum % stimulation (agonist response) over tested concentration range
[8] = agonist mode, −Log10(EC50 [Molar]), read-out: LNCaP-AR-F876L AG pEC50 (converted)

IC50 [1] [µM]	Emax [1, 5] [%]	EC50 [2, 6] [µM]	Emax [2, 7] [%]	Emax [3, 5] [%]	IC50 [3] [µM]	EC50 [4, 8] [µM]	Emax [4, 7] [%]	SMILES	Emax [1] [%]	EC50 [2] [µM]	Emax [2] [%]	Emax [3] [%]	EC50 [4] [µM]	Emax [4] [%]
2.45	99.5	> 15.1	0	99.7	0.724	> 15.1	0.1	N#Cc1ncc(N2C(=O)C3(CCC3)N(c3ccc(C(=O)NCCN4CCOCC4)c(F)c3)C2=S)cc1C(F)(F)F [Cpd 22, 4-[6-[6-cyano-5-(trifluoromethyl)-3-pyridyl]-5-oxo-7-thioxo-6,8-diazaspiro[3.4]octan-8-yl]-2-fluoro-N-(2-morpholinoethyl)benzamide]						
1.26	99.4	> 15.1	0.9	99.6	0.347	> 15.1	0	CC(C)NC(=O)c1ccc(N2C(=S)N(c3cnc(C#N)c(C(F)(F)F)c3)C(=O)C23CCC3)cc1F [Cpd 23, 4-[6-[6-cyano-5-(trifluoromethyl)-3-pyridyl]-5-oxo-7-thioxo-6,8-diazaspiro[3.4]octan-8-yl]-2-fluoro-N-isopropyl-benzamide]						
0.331	100	> 15.1	0	99.5	0.229	> 15.1	0.1	COCCCNC(=O)c1ccc(N2C(=S)N(c3cnc(C#N)c(C(F)(F)F)c3)C(=O)C23CCC3)cc1F [Cpd 24, 4-[6-[6-cyano-5-(trifluoromethyl)-3-pyridyl]-5-oxo-7-thioxo-6,8-diazaspiro[3.4]octan-8-yl]-2-fluoro-N-(3-methoxypropyl)benzamide]						
1	98	> 15.1	1.5	99.7	0.525	> 15.1	0.2	CNS(=O)(=O)c1ccc(N2C(=S)N(c3cnc(C#N)c(C(F)(F)F)c3)C(=O)C23CCC3)cc1 [Cpd 25, 4-[6-[6-cyano-5-(trifluoromethyl)-3-pyridyl]-5-oxo-7-thioxo-6,8-diazaspiro[3.4]octan-8-yl]-N-methyl-benzenesulfonamide]						
0.813	97.9	> 15.1	1.1	97.9	0.891	> 15.1	0.3	Cc1ccc(CNC(=O)c2ccc(N3C(=S)N(c4cnc(C#N)c(C(F)(F)F)c4)C(=O)C34CCC4)cc2F)o1 [Cpd 26, 4-[6-[6-cyano-5-(trifluoromethyl)-3-pyridyl]-5-oxo-7-thioxo-6,8-diazaspiro[3.4]octan-8-yl]-2-fluoro-N-[(5-methyl-2-furyl)methyl]benzamide]						
0.389	102	> 15.1		101	0.1	> 15.1		Cc1ccc(N2C(=S)N(c3cnc(C#N)c(C)c3)C(=O)C23CCC3)cc1 [Cpd 29, 3-methyl-5-[5-oxo-8-(p-tolyl)-7-thioxo-6,8-diazaspiro[3.4]octan-6-yl]pyridine-2-carbonitrile]			0.7			0.3

SMILES	IC50 [1] [µM]	Emax [1, 5] [%]	EC50 [2, 6] [µM]	Emax [2, 7] [%]	Emax [3, 5] [%]	IC50 [3] [µM]	EC50 [4, 8] [µM]	Emax [4, 7] [%]	Emax [1] [%]	EC50 [2] [µM]	Emax [2] [%]	Emax [3] [%]	EC50 [4] [µM]	Emax [4] [%]
CC(C)CCNC(=O)c1ccc(N2C(=S)N(c3cnc(C#N)c(C(F)(F)F)c3)C(=O)C23CCC3)cc1F [Cpd 27, 4-[6-[6-cyano-5-(trifluoromethyl)-3-pyridyl]-5-oxo-7-thioxo-6,8-diazaspiro[3.4]octan-8-yl]-2-fluoro-N-isopentyl-benzamide]	0.912					0.631			96.8	> 15.1	0.4	98.8	> 15.1	0.2
CN1CCC(Oc2ccc(N3C(=S)N(c4cnc(C#N)c(C(F)(F)F)c4)C(=O)C34CCC4)cc2F)CC1 [Cpd 28, 5-[8-[3-fluoro-4-[(1-methyl-4-piperidyl)oxy]phenyl]-5-oxo-7-thioxo-6,8-diazaspiro[3.4]octan-6-yl]-3-(trifluoromethyl)pyridine-2-carbonitrile]	0.501					0.204			99.6	> 15.1	-0.1	100	> 15.1	0

Source: patent publication US20180008587A1, “THIOHYDANTOIN ANDROGEN RECEPTOR ANTAGONISTS FOR THE TREATMENT OF CANCER” (Jaressen Pharmaceutica NV, priority 2016, published 2018)
